Laboratory results reported in US10519177B2, “Heterocyclic compounds and uses thereof” (Plexxikon Inc., priority 2013, dated 2019).
Where two headings read alike, the source gives them in different places.

Columns and labels:
[1] = system: bromodomain; assay: at least one of the bromodomain cell assays of Example 57; type: cell-based; details: at least one of the bromodomain cell assays described in Example 57; read-out: IC50 in at least one of the bromodomain cell assays
[2] = system: MV-4-11 cells; assay: Oncology cell growth assay MV-4-11 (CellTiter Glo); type: cell-based; details: Homo sapiens, MV4-11, 72 h, read-out: Cell activity (IC50 μM) MV-4-11 3d-Growth
Method in brief: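 MV-4-11 AML cells (MLL-AF4), 3000 per well, exposed to 8-point 1:3 compound titration from 10 μM top concentration (0.2% DMSO) for 72 h. Viability by CellTiter Glo luminescence, normalized to DMSO controls; pIC50 from four-parameter curve fit.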

[3] = molecular target: BRD4-BD12 (1-477) (Homo sapiens (Human), UniProt O60885); assay: Alphascreen binding assay BRD4-BD12; details: BRD4(1 2) H4; read-out: Biochemical activity (IC50 μM) BRD4(1 2) H4
Method in brief: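 First, compound was preincubated 1 h at room temperature with the His-tagged BRD4 protein (BD1 44-164 or tandem BD12 1-477) and acetylated H4 peptide. Next, donor and acceptor beads were added at 7.5 μg/ml final. After 30 min, AlphaScreen emission was recorded.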

Row | Compound | IC50 [1] [µM] | IC50 ([2]; MV-4-11, 3d growth) [µM] | IC50 [3] [µM] | IC50 [2] [µM]
1 | Cc1noc(C)c1-c1cnc2c(-c3ccc(NC(=O)NC4CC4)cc3)cn([C@@H](C)c3ccccn3)c2c1 [P-0564, 1-cyclopropyl-3-[4-[6-(3,5-dimethylisoxazol-4-yl)-1-[(1S)-1-(2-pyridyl)ethyl]pyrrolo[3,2-b]pyridin-3-yl]phenyl]urea] | < 10 | < 1 | < 1 | –
2 | COC(=O)c1ccc(-c2cn([C@@H](C)c3ccccc3)c3cc(-c4c(C)noc4C)cnc23)cc1 [P-0559, methyl 4-[6-(3,5-dimethylisoxazol-4-yl)-1-[(1S)-1-phenylethyl]pyrrolo[3,2-b]pyridin-3-yl]benzoate] | < 10 | < 1 | < 1 | –
3 | Cc1noc(C)c1-c1cnc2c(-c3ccc(C(=O)O)cc3)cn(CC3CCCCC3)c2c1 [P-0554, 4-[1-(cyclohexylmethyl)-6-(3,5-dimethylisoxazol-4-yl)pyrrolo[3,2-b]pyridin-3-yl]benzoic acid] | < 10 | < 1 | < 1 | –
4 | Cc1noc(C)c1-c1cnc2c(-c3ccc(CCC(=O)O)cc3)cn(CC3CCC(F)(F)CC3)c2c1 [P-0530, 3-[4-[1-[(4,4-difluorocyclohexyl)methyl]-6-(3,5-dimethylisoxazol-4-yl)pyrrolo[3,2-b]pyridin-3-yl]phenyl]propanoic acid] | < 10 | < 1 | < 1 | –
5 | CC(=O)Nc1ccc(-c2cn(CC3(F)CCCCC3)c3cc(-c4c(C)noc4C)cnc23)cc1 [P-0496, N-[4-[6-(3,5-dimethylisoxazol-4-yl)-1-[(1-fluorocyclohexyl)methyl]pyrrolo[3,2-b]pyridin-3-yl]phenyl]acetamide] | < 10 | < 1 | < 1 | –
6 | [2H]C([2H])(C1CC(F)(F)C1)n1cc(-c2cnn(C(F)F)c2)c2ncc(-c3c(C)noc3C)cc21 [P-0256, 4-[1-[dideuterio-(3,3-difluorocyclobutyl)methyl]-3-[1-(difluoromethyl)pyrazol-4-yl]pyrrolo[3,2-b]pyridin-6-yl]-3,5-dimethyl-isoxazole] | < 10 | – | < 1 | < 1
7 | Cc1nnn(C)c1-c1cnc2c(-c3ccc(C(=O)O)cc3)cn(CC3CCC(F)(F)CC3)c2c1 [P-0377, 4-[1-[(4,4-difluorocyclohexyl)methyl]-6-(3,5-dimethyltriazol-4-yl)pyrrolo[3,2-b]pyridin-3-yl]benzoic acid] | < 10 | – | < 1 | < 1
8 | Cc1noc(C)c1-c1cnc2c(I)cn(CC3CCCCCCC3)c2c1 [P-0577, 4-[1-(cyclooctylmethyl)-3-iodo-pyrrolo[3,2-b]pyridin-6-yl]-3,5-dimethyl-isoxazole] | < 10 | < 1 | < 1 | –
9 | Cc1noc(C)c1-c1cnc2c(-c3ccc(-c4nnn[nH]4)cc3)cn([C@@H](C)c3ccccn3)c2c1 [P-0568, 3,5-dimethyl-4-[1-[(1S)-1-(2-pyridyl)ethyl]-3-[4-(1H-tetrazol-5-yl)phenyl]pyrrolo[3,2-b]pyridin-6-yl]isoxazole] | < 10 | < 1 | < 1 | –
10 | COC(=O)c1ccc(-c2cn(CC3(F)CCC(F)(F)CC3)c3cc(-c4c(C)noc4C)cnc23)cc1F [P-0387, methyl 4-[6-(3,5-dimethylisoxazol-4-yl)-1-[(1,4,4-trifluorocyclohexyl)methyl]pyrrolo[3,2-b]pyridin-3-yl]-2-fluoro-benzoate] | < 10 | – | < 1 | < 1
11 | [2H]C([2H])(C1CCC(F)(F)CC1)n1cc(-c2cccnc2)c2ncc(-c3c(C)noc3C)cc21 [P-0340, 4-[1-[dideuterio-(4,4-difluorocyclohexyl)methyl]-3-(3-pyridyl)pyrrolo[3,2-b]pyridin-6-yl]-3,5-dimethyl-isoxazole] | < 10 | – | < 1 | < 1
12 | COC(=O)c1ccc(-c2cn(CC3CCCCCC3)c3cc(-c4c(C)noc4C)cnc23)cc1 [P-0585, methyl 4-[1-(cycloheptylmethyl)-6-(3,5-dimethylisoxazol-4-yl)pyrrolo[3,2-b]pyridin-3-yl]benzoate] | < 10 | 1 to 10 | < 1 | –
13 | Cc1noc(C)c1-c1cnc2c(-c3cccc(S(=O)(=O)NCCO)c3)cn(CC3(F)CCCCC3)c2c1 [P-0491, 3-[6-(3,5-dimethylisoxazol-4-yl)-1-[(1-fluorocyclohexyl)methyl]pyrrolo[3,2-b]pyridin-3-yl]-N-(2-hydroxyethyl)benzenesulfonamide] | < 10 | < 1 | < 1 | –
14 | CCn1cc(-c2cn(CC3CCC(F)(F)CC3)c3cc(-c4c(C)nnn4C)cnc23)cn1 [P-0427, 1-[(4,4-difluorocyclohexyl)methyl]-6-(3,5-dimethyltriazol-4-yl)-3-(1-ethylpyrazol-4-yl)pyrrolo[3,2-b]pyridine] | < 10 | < 1 | < 1 | –
15 | Cc1noc(C)c1-c1cnc2c(-c3cnn(C(F)F)c3)cn([C@@H](C)c3ccccn3)c2c1 [P-0514, 4-[3-[1-(difluoromethyl)pyrazol-4-yl]-1-[(1S)-1-(2-pyridyl)ethyl]pyrrolo[3,2-b]pyridin-6-yl]-3,5-dimethyl-isoxazole] | < 10 | < 1 | < 1 | –
16 | COc1cc(-c2cn(CC3CCCCC3)c3cc(-c4c(C)noc4C)cnc23)ccc1C(=O)O [P-0700, 4-[1-(cyclohexylmethyl)-6-(3,5-dimethylisoxazol-4-yl)pyrrolo[3,2-b]pyridin-3-yl]-2-methoxy-benzoic acid] | < 10 | < 1 | < 1 | –
17 | [2H]C([2H])(C1CCC(F)(F)CC1)n1cc(-c2ccc(N)nc2)c2ncc(-c3c(C)noc3C)cc21 [P-0347, 5-[1-[dideuterio-(4,4-difluorocyclohexyl)methyl]-6-(3,5-dimethylisoxazol-4-yl)pyrrolo[3,2-b]pyridin-3-yl]pyridin-2-amine] | < 10 | – | < 1 | < 1
18 | CCOC(=O)c1ccc(-n2cc(CC3CCC(F)(F)CC3)c3cc(-c4c(C)noc4C)cnc32)nc1 [P-0429, ethyl 6-[3-[(4,4-difluorocyclohexyl)methyl]-5-(3,5-dimethylisoxazol-4-yl)pyrrolo[2,3-b]pyridin-1-yl]pyridine-3-carboxylate] | < 10 | 1 to 10 | < 1 | –
19 | Cc1noc(C)c1-c1cnc2[nH]cc(C(O)(c3ccccn3)c3ccccn3)c2c1 [P-0545, [5-(3,5-dimethylisoxazol-4-yl)-1H-pyrrolo[2,3-b]pyridin-3-yl]-bis(2-pyridyl)methanol] | < 10 | < 1 | < 1 | –
20 | Cc1noc(C)c1-c1cnc2c(-c3cnn(C)c3)cn(CC3(F)CCC(F)(F)CC3)c2c1 [P-0381, 3,5-dimethyl-4-[3-(1-methylpyrazol-4-yl)-1-[(1,4,4-trifluorocyclohexyl)methyl]pyrrolo[3,2-b]pyridin-6-yl]isoxazole] | < 10 | – | < 1 | < 1
21 | Cc1noc(C)c1-c1cnc2c(-c3ccccc3C(=O)O)cn(CC3(F)CCCCC3)c2c1 [P-0501, 2-[6-(3,5-dimethylisoxazol-4-yl)-1-[(1-fluorocyclohexyl)methyl]pyrrolo[3,2-b]pyridin-3-yl]benzoic acid] | < 10 | < 1 | < 1 | –
22 | COC(=O)c1ccc(-c2cn(C(C)(C)c3ccccn3)c3cc(-c4c(C)noc4C)cnc23)cc1 [P-0547, methyl 4-[6-(3,5-dimethylisoxazol-4-yl)-1-[1-methyl-1-(2-pyridyl)ethyl]pyrrolo[3,2-b]pyridin-3-yl]benzoate] | < 10 | < 1 | < 1 | –
23 | COC(=O)c1ccc(-c2cn(CC3CCCC3)c3cc(-c4c(C)noc4C)cnc23)cc1 [P-0550, methyl 4-[1-(cyclopentylmethyl)-6-(3,5-dimethylisoxazol-4-yl)pyrrolo[3,2-b]pyridin-3-yl]benzoate] | < 10 | 1 to 10 | < 1 | –
24 | Cc1cc(-c2cnc3c(-c4cnn(CC(F)(F)F)c4)cn(CC4CCC(F)(F)CC4)c3c2)c[nH]c1=O [P-0481, 5-[1-[(4,4-difluorocyclohexyl)methyl]-3-[1-(2,2,2-trifluoroethyl)pyrazol-4-yl]pyrrolo[3,2-b]pyridin-6-yl]-3-methyl-1H-pyridin-2-one] | < 10 | < 1 | < 1 | –
25 | Cc1noc(C)c1-c1cnc2c(-c3ccc(C(=O)O)s3)cn(CC3CCC(F)(F)CC3)c2c1 [P-0485, 5-[1-[(4,4-difluorocyclohexyl)methyl]-6-(3,5-dimethylisoxazol-4-yl)pyrrolo[3,2-b]pyridin-3-yl]thiophene-2-carboxylic acid] | < 10 | < 1 | < 1 | –
26 | [2H]C([2H])(C1CCC(F)(F)CC1)n1cc(-c2cnn(C(=O)OC(C)(C)C)c2)c2ncc(-c3c(C)noc3C)cc21 [P-0362, tert-butyl 4-[1-[dideuterio-(4,4-difluorocyclohexyl)methyl]-6-(3,5-dimethylisoxazol-4-yl)pyrrolo[3,2-b]pyridin-3-yl]pyrazole-1-carboxylate] | < 10 | – | < 1 | < 1
27 | COC(=O)c1ccc(-c2cn(CC3CCC4(CC3)CC4)c3cc(-c4c(C)noc4C)cnc23)cc1 [P-0581, methyl 4-[6-(3,5-dimethylisoxazol-4-yl)-1-(spiro[2.5]octan-6-ylmethyl)pyrrolo[3,2-b]pyridin-3-yl]benzoate] | < 10 | 1 to 10 | < 1 | –
